# From patent US9969771B2, “Tetrapeptide having effect of inhibiting VEGF-induced angiogenesis and use thereof” (AVIXGEN INC., priority 2015, dated 2018)
# “Also recorded” adds a separate entry of the source. Where a SMILES comes first, the peptide text is derived from it.
# Key:
# [1] = test system: Akt; experiment: Western blot, Akt phosphorylation in VEGF-A-stimulated HUVECs; type: cell-based, human; conditions: HUVECs stimulated with VEGF-A
# Protocol: (§1) Cells were lyzed in RIPA buffer, and 50 μg of proteins were isolated by SDS-PAGE and then transferred to a PVDF membrane. The membrane was reacted with an antibody with respect to a target protein for 2 hours. The membrane was washed twice and reacted with a horseradish peroxidase-conjugated antibody, and then an amount of the target proteins was assessed with an enhanced chemiluminescence system.
# [2] = test system: aortic ring; experiment: Aortic ring sprouting assay (ex vivo); parameters: species or system Sprague-Dawley rat; conditions: RLYE 0.3 nM, VEGF 20 ng/ml
# Protocol: An aortic ring sprouting assay was performed by a method modified based on previous research. A 1-mm-thick aortic ring prepared from a Sprague-Dawley rat (7-week-old male) was placed in a 96-well plate coated with 120 μl of Matrigel, sealed with 50 μl of Matrigel, and incubated with RLYE (SEQ ID NO: 2) (0.3 nM) or VEGF (20 ng/ml) in a total of 200 μl of a serum-free medium. Blood vessels newly formed at day 6 were fixed, microvascular formation was observed under a phase-contrast microscope, and angiogenesis was quantified with Image Jsoftware available at NIH website, rsb.info.nih.gov/ij.
# [3] = biological target: T1, VEGFR-2 (Homo sapiens, UniProt P35968); experiment: VEGFR pull-down assay using biotin-labeled RLYE, VEGFR-2; type: binding; parameters: endogenous in cells; host or cells: HUVEC; conditions: HUVEC lysate
# T1 sequence (P35968 20-1356): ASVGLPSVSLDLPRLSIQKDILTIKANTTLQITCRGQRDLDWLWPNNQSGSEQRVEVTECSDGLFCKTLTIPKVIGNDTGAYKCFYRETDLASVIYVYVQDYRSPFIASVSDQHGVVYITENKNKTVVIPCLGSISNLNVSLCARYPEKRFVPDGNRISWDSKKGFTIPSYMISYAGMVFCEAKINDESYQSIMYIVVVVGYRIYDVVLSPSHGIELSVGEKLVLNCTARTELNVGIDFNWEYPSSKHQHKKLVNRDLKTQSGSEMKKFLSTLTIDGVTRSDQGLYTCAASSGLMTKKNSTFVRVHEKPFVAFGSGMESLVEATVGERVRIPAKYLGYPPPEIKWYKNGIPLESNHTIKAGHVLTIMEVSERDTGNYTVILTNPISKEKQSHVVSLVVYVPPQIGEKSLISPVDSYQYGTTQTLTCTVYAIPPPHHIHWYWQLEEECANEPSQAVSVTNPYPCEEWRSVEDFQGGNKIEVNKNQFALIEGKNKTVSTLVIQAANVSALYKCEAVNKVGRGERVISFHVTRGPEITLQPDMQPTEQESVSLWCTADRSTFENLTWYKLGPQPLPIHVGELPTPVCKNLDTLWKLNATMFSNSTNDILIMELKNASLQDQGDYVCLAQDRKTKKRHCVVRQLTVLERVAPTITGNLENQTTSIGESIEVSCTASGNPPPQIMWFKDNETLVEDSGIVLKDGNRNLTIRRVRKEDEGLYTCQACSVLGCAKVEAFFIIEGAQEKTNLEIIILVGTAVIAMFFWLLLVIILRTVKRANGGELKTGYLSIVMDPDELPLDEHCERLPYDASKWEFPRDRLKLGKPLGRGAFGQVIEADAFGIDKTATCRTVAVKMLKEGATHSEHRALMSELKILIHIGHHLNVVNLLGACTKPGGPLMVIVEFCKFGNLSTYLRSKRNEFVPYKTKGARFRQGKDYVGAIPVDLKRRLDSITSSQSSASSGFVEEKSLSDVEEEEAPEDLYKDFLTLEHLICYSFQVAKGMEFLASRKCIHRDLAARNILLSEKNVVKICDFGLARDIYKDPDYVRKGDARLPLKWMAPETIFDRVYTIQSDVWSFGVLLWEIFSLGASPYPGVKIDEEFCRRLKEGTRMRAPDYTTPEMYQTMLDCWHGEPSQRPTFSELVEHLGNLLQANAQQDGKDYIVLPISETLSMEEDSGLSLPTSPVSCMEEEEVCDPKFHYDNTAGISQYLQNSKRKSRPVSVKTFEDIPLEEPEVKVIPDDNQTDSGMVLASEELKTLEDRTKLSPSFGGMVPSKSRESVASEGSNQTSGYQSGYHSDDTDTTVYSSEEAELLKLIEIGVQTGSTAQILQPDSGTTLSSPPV
# Protocol: HUVECs were lysed in a pull-down buffer [50 mM Tris-HCl (pH 8.0), 150 mM sodium chloride, 1.0% NP-40, 0.5% sodium deoxycholate and 0.1% SDS]. A lysate ([…] of proteins) was reacted with biotin-labeled RLYE (SEQ ID NO: 2) (0.15 or 1.5 nM) for 1 hour, and reacted with streptavidin-agarose beads ([…]) at 4° C. for 1 hour. RLYE (SEQ ID NO: 2)-binding proteins were isolated from the cell lysate through centrifugation, washed, and then boiled for 10 minutes. The bead-binding proteins were isolated by SDS-PAGE, and immunoblotting was performed with an antibody with respect to VEGFR-2 or VEGFR-1.
# [4] = test system: HUVECs; experiment: HUVEC migration, transwell (Boyden chamber) assay; type: cell-based, human
# Protocol: HUVEC migration was analyzed using a transwell plate equipped with a 6.5-mm-diameter polycarbonate filter (8-μm pore size). A lower surface of the filter was coated with 10 μg of gelatin. […] Following incubation with various concentrations of tetrapeptides at room temperature for 30 minutes, HUVECs (1×10^6 cells/100 μl) were placed in upper wells. The cells were incubated at 37° C. in a constant temperature and humidity chamber for 4 hours. The migrated cells were stained with hematoxylin and eosin, and quantified under an optical microscope.
# [5] = test system: HCT116 human colorectal tumor cells; experiment: Human colorectal tumor (HCT116) xenograft model; type: in vivo, nude mouse
# Protocol: 100 μl each of 2×10^6 B16F1 mouse melanoma cells and 1×10^7 HCT116 human colorectal tumor cells were subcutaneously injected into the left side of a C57BL/6J mouse and a nude mouse. After a tumor volume reached at least 50 to 70 mm3 (taking about 7 days), saline or RLYE (SEQ ID NO: 2) (0.5 or 1.0 mg/kg) was peritoneally injected daily into the mice. A tumor size was two-dimensionally measured with calipers. A tumor volume (mm3) was calculated by a formula of […]. Following homogenization of tumor tissue with PBS and centrifugation (at 12,000×g for 5 min), a hemoglobin-containing supernatant was extracted to be used in analysis with Drabkin's reagent (Sigma). A hemoglobin level was measured by a cyanmethemoglobin method, and the amount of hemoglobin per gram of the tumor was calculated.
# Tumor tissue was fixed in 10% formalin, and inserted into paraffin. A slide was prepared from a tissue section, embedded in xylene to remove the paraffin, and rehydrated with 100%, 95%, 80% and 70% ethanol (EtOH) in s stepwise manner. Afterward, the slide was washed with deionized water multiple times at room temperature. To inhibit an intracellular peroxidase activity, the section was reacted in 0.3% hydrogen peroxide-containing methanol for 15 minutes, washed with PBS three times, reacted in 3% goat serum-containing PBS at room temperature for 2 hours, and reacted with a PECAM-1 antibody overnight at 4° C. The tissue section slide was washed with PBS three times, and reacted with a TRITC-conjugated secondary antibody for 1 hour. In addition, the tumor tissue section was also reacted with FITC-isolectin B4 ([…]; Vector Laboratories) for 1 hour. The tissue section was washed with PBS three times, and treated with a Permount solution to make a slide, followed by observation of tumor blood vessels under a fluorescence microscope.
# [6] = test system: NO synthase (eNOS); experiment: Western blot, eNOS phosphorylation in VEGF-A-stimulated HUVECs; type: cell-based, human
# Protocol: as §1
# [7] = test system: chick chorioallantoic membrane (CAM); experiment: Chick chorioallantoic membrane (CAM) analysis; type: in vivo; conditions: RLYE 0.75 nM, VEGF 50 ng/ml
# Protocol: For a chick chorioallantoic membrane (CAM) analysis, fertilized eggs were incubated for 3 days, and a window was made in the same manner as used in the previous research (18). The window (with a diameter of about 3 cm) was made by removing a shell and an inner layer of the shell, and the exposed part was sealed with cellophane tape. The eggs were stood upright at 37° C. in an incubator (with a humidity of 55 to 60%) and were incubated for 3 days. A Thermanox disc containing 10 μl of a salt-free solution containing RLYE (SEQ ID NO: 2) (0.75 nM) alone or in combination with VEGF (50 ng/ml) was gently placed on a CAM that had been incubated for 10 days. After 72-hour incubation, blood vessels formed above were stained by injecting 1 ml of a 10% intralipose (fat emulsion) solution right under the CAM. The stained blood vessels were photographed using a Nikon digital camera, and the number of blood vessels newly formed around the disc was counted.
# [8] = biological target: T1, VEGFR-2; experiment: Western blot, VEGFR-2 phosphorylation in VEGF-A-treated HUVECs; type: cell-based; parameters: endogenous in cells; host or cells: HUVEC
# Protocol: as §1
# [9] = test system: p38; experiment: Western blot, p38 activation in VEGF-A-stimulated HUVECs; type: cell-based, human; conditions: HUVECs stimulated with VEGF-A
# Protocol: as §1
# [10] = test system: B16F10 mouse melanoma cells; experiment: Tumor metastasis experiment model (B16F10); type: in vivo, C57BL/6J mouse; conditions: B16F10, 1 mg/kg per day peritoneally, three weeks, versus untreated control mouse
# Protocol: 1×10^5 B16F10 mouse melanoma cells were injected into the caudal vein in the C57BL/6J mouse, and 1 mg/kg (100 μl) of RLYE (SEQ ID NO: 2) was peritoneally injected daily for 3 weeks. The lung was extracted and washed with Dulbecco's PBS, fixed in a 4% paraformaldehyde solution overnight, and the number of tumor metastasis shown on the entire surface of the lung was counted under a stereoscopic microscope.
# [11] = 0.5 or 1.0 mg/kg per day peritoneally
structure (smiles),measurement,setting,value
CC(C)C[C@H](NC(=O)[C@@H](N)CCCNC(=N)N)C(=O)N[C@@H](Cc1ccc(O)cc1)C(=O)N[C@@H](CCC(=O)O)C(=O)O [RLYE] (H-RLYE-OH; N-terminus and C-terminus assumed),phosphorylation of Akt,[1],inhibited
same,VEGF-A-induced angiogenesis at the edge of the aortic ring,[2],significantly inhibited
same,binding to VEGFR-2 (pull-down),[3],binds to VEGFR-2
same,EGF-induced migration of HUVECs,[4]; EGF stimulated,does not affect
same,P1GF-induced HUVEC migration,[4]; P1GF (ligand of VEGFR-1),does not inhibit
same,inhibition of VEGF-induced HUVEC migration,[4]; VEGF / VEGF-A stimulated,effectively inhibited; also recorded: certainly inhibits; also recorded: concentration-dependently inhibited
same,VEGF-B-induced HUVEC migration,[4]; VEGF-B (ligand of VEGFR-1),does not inhibit
same,bFGF-induced migration of HUVECs,[4]; bFGF stimulated,did not inhibit
same,invasion of HUVECs into tumor tissue (isolectin B4 / PECAM-1 immunostaining),[5],decreased depending on the amount of treated RLYE
same,tumor growth,[5]; [11],concentration-dependently inhibited
same,tumor size,[5]; [11],significantly reduced
same,decrease in hemoglobin content in tumor tissue,[5]; compared with a control,41%
same,VEGF-A-induced phosphorylation of eNOS,[6],effectively blocked
same,VEGF-A-induced blood vessel density in CAM,[7],considerable reduction
same,phosphorylation of VEGFR-2,[8],inhibits
same,activation of p38,[9],inhibited
same,decrease in number of colonies of tumor cells spreading to the lung,[10],62%
